Values of other authors, collected in patent publication US20060165637A1, “Topical agent containing phytanic acid or a derivative thereof” (priority 2003, published 2006).

Legend:
[1] = test system: RXR; conditions: relative to retinoic acid
[2] = applied topically to the skin

Row | SMILES | RXR binding affinity, times weaker than that of retinoic acid [1] [times] | conversion into phytanic acid [2]
1 | CC(C)CCCC(C)CCCC(C)CCCC(C)CC(=O)O (centres unmarked) [Phytanic acid, 3,7,11,15-tetramethylhexadecanoic acid] | 200 | 
2 | C/C(=C\CO)CCC[C@H](C)CCC[C@H](C)CCCC(C)C [phytol] |  | does not occur
